Measurements from patent US10407388B2, “Thiourea derivatives as activators of RORα and pharmaceutical composition containing same” (SEOUL NATIONAL UNIVERSITY R & DB FOUNDATION, priority 2011, dated 2019).

Experiments:
MCAD = test: Fatty acid oxidation gene MCAD in HepG2 cells, real-time RT-PCR; type: cell-based, human; conditions: 100 μM, 24 hours; FIG. 8
Procedure: (§1) HepG2 cells (1×10^6 cells/well) were seeded on a 60-dish and cultured overnight in a DMEM containing 10% FBS. The HepG2 cells were maintained at 37° C. in a humidification thermostat containing 5% CO2 and 95% air. After culturing, the HepG2 cells were treated with JC1-38, JC1-40, and JC1-42 at a concentration of 100 μM for 24 hours. After treatment, effects thereof on transcriptional activity were analyzed by real-time reverse transcriptase-polymerase chain reaction (real-time RT-PCR) analysis. The PCR was performed using the following primers respectively specific to MCAD, ACO1, ACO2, HMGCS2, CPT-1, and ACS, which are involved in fatty acid oxidation: […]

RORα [1] = biological target: T1, RORα (Homo sapiens, UniProt P35398); test: Transcriptional activity of RORα, RORE-tk-Luc reporter in CV-1 cells (Experimental Example 1); type: cell-based; conditions: for Fold Activation: JC1 compounds 100 μM, 24 hours, luciferase activity standardized by β-gal, versus control treated only with solvent
T1 construct: expressed in transfected cells; host or cells: CV-1 cells (ATCC CCL-70)
T1 sequence (P35398 1-523): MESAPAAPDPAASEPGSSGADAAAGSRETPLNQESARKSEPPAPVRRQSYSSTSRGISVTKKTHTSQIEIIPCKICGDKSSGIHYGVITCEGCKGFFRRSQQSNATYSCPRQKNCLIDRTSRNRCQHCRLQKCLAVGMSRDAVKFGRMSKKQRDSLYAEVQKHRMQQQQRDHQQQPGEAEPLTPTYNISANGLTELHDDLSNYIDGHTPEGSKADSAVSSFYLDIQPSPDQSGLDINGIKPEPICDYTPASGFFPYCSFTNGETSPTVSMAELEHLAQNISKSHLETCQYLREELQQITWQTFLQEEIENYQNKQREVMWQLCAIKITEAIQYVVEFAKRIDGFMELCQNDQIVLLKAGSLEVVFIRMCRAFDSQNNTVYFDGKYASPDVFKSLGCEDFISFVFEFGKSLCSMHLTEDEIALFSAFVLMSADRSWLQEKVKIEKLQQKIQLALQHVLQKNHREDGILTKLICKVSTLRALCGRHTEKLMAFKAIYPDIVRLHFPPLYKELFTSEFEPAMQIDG
Procedure: CV-1 cells (CCL-70) were purchased from American Type Culture Collection (ATCC). The CV-1 cells (4×10^4 cells/well) were seeded on a 24-well culture plate and cultured overnight in a Dulbecco's Modified Eagle's Medium (DMEM) containing 10% fetal bovine serum (FBS). The CV-1 cells were maintained at 37° C. in a humidification thermostat containing 5% CO2 and 95% air. After culturing, the cells were transformed with RORE-tk-Luc reporter plasmid (100 ng) and ROR expression vector (5 ng) using calcium phosphate. […]

RORα [2] = biological target: T1, RORα; test: Transcriptional activity of RORα according to concentration, RORE-Luc reporter and Flag-RORα vector in CV-1 cells (Experimental Example 2); type: cell-based; conditions: for transcriptional activity of RORα / activity of RORα at low concentrations: 1 μM; for transcriptional activity of RORα: 10 μM, 20 μM, 50 μM, and 100 μM, 24 hours, FIG. 4; for activity of RORα at low concentrations: 10 μM, and 20 μM; for effect of increasing the activity of RORα compared with melatonin: 50 μM to 100 μM, melatonin 100 μM
Procedure: CV-1 cells (4×10^4 cells/well) were seeded on a 24-well culture plate and cultured overnight in a DMEM containing 10% FBS. The CV-1 cells were maintained at 37° C. in a humidification thermostat containing 5% CO2 and 95% air. After culturing, the CV-1 cells were transformed with RORE-Luc reporter (0.05 μg) and Flag-RORα vector (0.005 μg) using calcium phosphate. […] Subsequently, cell lysates were collected, and luciferase activity was analyzed and determined using an analytical luminescence luminometer. The luciferase activity was standardized by β-gal activity to determine transcriptional efficiency, and data was attained as the mean and SD for two or three independent experimental results, and the results thereof are illustrated in FIG. 4.

CD36 = test: Fatty acid uptake gene CD36 in HepG2 cells, RT-PCR; type: cell-based, human; conditions: 100 μM, 24 hours; FIG. 9a
Procedure: as §1, with “60-dish,” for “60-dish”, “RT-PCR” for “real-time reverse transcriptase-polymerase chain reaction (real-time RT-PCR)”, “CD36 (see FIG. 9a) involved in fatty acid uptake” for “MCAD, ACO1, ACO2, HMGCS2, CPT-1,”, “MTTP and ApoB100 (see FIG. 9b),” for “ACS,”, “the secretion of very low density lipoproteins:” for “fatty acid oxidation:”

CPT-1 = test: Fatty acid oxidation gene CPT-1 in HepG2 cells, real-time RT-PCR; type: cell-based, human; conditions: 100 μM, 24 hours; FIG. 8
Procedure: as §1

SREBP-1 = test: Transcriptional activity of SREBP-1, SRE-Luc reporter in HepG2 cells treated with T17; type: cell-based, human; conditions: 50 μM with 1 μM T17, 24 hours; FIG. 5b
Procedure: In addition, HepG2 cells were cultured under the same conditions, and then the HepG2 cells were transformed with SRE-Luc reporter (0.1 μg) using Welfect-EXTM Plus (WelGENE Inc., Korea). 24 hours after transformation, the HepG2 cells were treated with each of the JC1-38, JC1-40, and JC1-42 compounds at a concentration of 50 μM and 1 μM T17 (T0901317) for 24 hours. Subsequently, cell lysates were collected, and luciferase activity was analyzed and determined using an analytical luminescence luminometer. The luciferase activity was standardized by β-gal activity to determine transcriptional efficiency, and data was attained as the mean and SD for three independent experimental results, and the results thereof are illustrated in FIG. 5b.

ACO1 = test: Fatty acid oxidation gene ACO1 in HepG2 cells, real-time RT-PCR; type: cell-based, human; conditions: 100 μM, 24 hours; FIG. 8
Procedure: as §1

| activity (transcriptional activity of RORα) (RORα [1]; 100 μM, relative to control treated only with a solvent) [%] | Fold Activation (RORα [1]) | activity of RORα at low concentrations (RORα [2]) | Structure (SMILES) | transcriptional activity of MCAD (MCAD) | transcriptional activity of RORα (RORα [2]) | effect of increasing the activity of RORα compared with melatonin (RORα [2]) | transcriptional activity of CD36 (CD36) | transcriptional activity of CPT-1 (CPT-1) | transcriptional activity of SREBP-1, which had been increased by T17 (SREBP-1) | transcriptional activity of ACO1 (ACO1) |
| --- | --- | --- | --- | --- | --- | --- | --- | --- | --- | --- |
| 460 | 4.6 | insignificantly increased | CNC(=S)NCc1ccc(Oc2ccccc2)cc1 [Compound 42, 1-(4-phenoxy-benzyl)-3-methyl-thiourea] | increased | increased in a manner dependent on the concentration | comparable to or surpassed the effect provided by melatonin | decreased | increased | decreased | increased |
| – | 3.6 | insignificantly increased | CNC(=S)NCc1ccc(OCc2ccccc2)cc1 [Compound 40, 1-(4-benzyloxy-benzyl)-3-methyl-thiourea] | increased | increased in a manner dependent on the concentration | comparable to or surpassed the effect provided by melatonin | decreased | increased | decreased | increased |

| Structure (SMILES) | activity (transcriptional activity of RORα) (RORα [1]; 100 μM, relative to control treated only with a solvent) [%] | Fold Activation (RORα [1]) | activity of RORα at low concentrations (RORα [2]) | transcriptional activity of MCAD (MCAD) | transcriptional activity of RORα (RORα [2]) | effect of increasing the activity of RORα compared with melatonin (RORα [2]) | transcriptional activity of CD36 (CD36) | transcriptional activity of CPT-1 (CPT-1) | transcriptional activity of SREBP-1, which had been increased by T17 (SREBP-1) | transcriptional activity of ACO1 (ACO1) |
| --- | --- | --- | --- | --- | --- | --- | --- | --- | --- | --- |
| CNC(=S)NCc1ccccc1-c1ccncc1 [Compound 38, 1-methyl-3-(4-pyridinyl-2-benzyl)-thiourea] | – | 1.9 | insignificantly increased | increased | increased in a manner dependent on the concentration | comparable to or surpassed the effect provided by melatonin | decreased | increased | decreased | increased |
